Assays:
[1] = system: isolated rabbit thoracic aorta preparations; test: Assay on vascular tone (vasorelaxation of methoxamine-precontracted aortic rings); assay type: cell-based; settings: for EC50: Oryctolagus cuniculus, read-out: EC50 (concentration producing 50% of the maximum relaxation)
Method: The ability of the compounds of the invention to induce vasorelaxation in comparison to precursor compound, was tested in vitro in isolated rabbit thoracic aorta preparations (Wanstall J. C. et al., Br. J. Pharmacol., 134:463-472, 2001).
Male New Zealand rabbits (1, 8-2 Kg) were used. The animals were anaesthetized with sodium thiopental (50 mg/kg, iv), sacrificed by exsanguinations and then the thorax was opened and the aorta dissected. The aortas were placed immediately in Krebs-HEPES buffer (pH 7.4; composition mM: NaCl 130.0, KCl 3.7, NaHCO3 14.9, KH2PO4 1.2, MgSO4⊙7H2O 1.2, Glucose 11.0, HEPES 10.0, CaCl2.2H2O 1.6) and cut into ring segments (4-5 mm in length). Each ring was placed in a 5 ml tissue bath filled with Krebs-HEPES buffer (37° C.) aerated with 95% O2 and 5% CO2 and was then attached to a force transducer (Grass FT03), connected to a BIOPAC MP150 System for measurement of the isometric tension^2. The preparations were allowed to equilibrate for 1 h at a resting tension of 2 g with changes of the buffer every 15 minutes and then stimulated by exposure to 90 mM KCl (3 times) with intervening washings. After equilibration, the rings were precontracted submaximally with methoxamine (3 μM) and, when the contraction reach a steady state a cumulative concentration-response curve to the test compounds was obtained. The time intervals between doses were based on the time needed to reach a full a steady state response.
Responses to test compounds were expressed as a percentage of residual contraction and plotted against concentration of test compound. EC50 values (where EC50 is the concentration producing 50% of the maximum relaxation to the test compound) were interpolated from these plots.

[2] = system: corticosteroid-induced glaucoma; settings: rabbit, administered topically twice a day; cited from earlier work

| SMILES | EC50 [1] | also measured |
| --- | --- | --- |
| C[C@H]1CC2C3CCC4=CC(=O)C=C[C@]4(C)[C@@]3(F)[C@@H](O)C[C@]2(C)[C@@]1(OC(=O)CCCO[N+](=O)[O-])C(=O)COC(=O)CCCO[N+](=O)[O-] (stereo partly drawn) [Compound (2), (9R,10S,11S,13S,16S,17R)-9-fluoro-11-hydroxy-10,13,16-trimethyl-17-(2-(4-(nitrooxy)butanoyloxy)acetyl)-3-oxo-6,7,8,9,10,11,12,13,14,15,16,17-dodecahydro-3H-cyclopenta[a]phenanthren-17-yl 4-(nitrooxy)butanoate] | 1680 ± 610 nM |  |
| COc1cc(C(=O)OCCCCO[N+](=O)[O-])ccc1OC(=O)OCC(=O)[C@@]1(OC(=O)CCCO[N+](=O)[O-])[C@@H](C)CC2C3CCC4=CC(=O)C=C[C@]4(C)[C@@]3(F)[C@@H](O)C[C@@]21C (stereo partly drawn) [Compound (3), 4-(nitrooxy)butyl 4-((2-((9R,10S,11S,13S,16S,17R)-9-fluoro-11-hydroxy-10,13,16-trimethyl-17-(4-(nitrooxy)butanoyloxy)-3-oxo-6,7,8,9,10,11,12,13,14,15,16,17-dodecahydro-3H-cyclopenta[a]phenanthren-17-yl)-2-oxoethoxy)carbonyloxy)-3-methoxybenzoate] | 1140 ± 480 nM |  |
| C[C@H]1C[C@H]2[C@@H]3CCC4=CC(=O)C=C[C@]4(C)[C@@]3(F)[C@@H](O)C[C@]2(C)[C@@]1(O)C(=O)CO [betamethasone, Betamethasone] |  | EC50 (concentration producing 50% of the maximum relaxation) ([1]; rabbit aortic rings precontracted with methoxamine (3 μM), cumulative concentration-response curve): no effect |
| C[C@@H]1C[C@H]2[C@@H]3CCC4=CC(=O)C=C[C@]4(C)[C@@]3(F)[C@@H](O)C[C@]2(C)[C@@]1(O)C(=O)COC(=O)c1ccc(CO[N+](=O)[O-])cc1 [dexamethasone 21-[(4-nitrooxymethyl)]benzoate] |  | effects in corticosteroid-induced glaucoma (intraocular pressure, retro bulbar circulation, ciliary body morphology) [2]: may prevent the intraocular pressure increase, the impairment of retro bulbar circulation, and the morphological changes in the ciliary bodies |

From US20110130375A1 (priority 2008, published 2011)
